From ChEMBL document CHEMBL1201862, “PubChem BioAssay data set” (2004)
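Five compound concentrations were applied to cells in 96-well plates for 48 hours; endpoints were derived by simple linear interpolation of the resulting dose-response curve. Abbreviation: GI50, concentration required for 50% inhibition of growth.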 Calls of active or inactive are those of the source. No stated cut-off is given here; in the data, active = GI50 up to about 1.1 µM and inactive = higher.

Columns and labels:
Test in all cases: inhibition of tumour cell growth, NCI panel, 48 h
786-0 = tested on: 786-0
ACHN = tested on: ACHN
BT-549 = tested on: BT-549
DLD-1 = tested on: DLD-1
DMS-114 = tested on: DMS-114
DMS-273 = tested on: DMS-273
DU-145 = tested on: DU-145
HOP-18 = tested on: HOP-18
HOP-92 = tested on: HOP-92
Hs-578T = tested on: Hs-578T
KM-20L2 = tested on: KM-20L2
M14 = tested on: M14
M19-MEL = tested on: M19-MEL
MDA-MB-231 = tested on: MDA-MB-231
MDA-MB-435 = tested on: MDA-MB-435
MDA-N = tested on: MDA-N
PC-3 = tested on: PC-3
SNB-78 = tested on: SNB-78
SR = tested on: SR
T47D = tested on: T47D
TK-10 = tested on: TK-10
XF498 = tested on: XF498
A498 = tested on: A498
A549 = tested on: A549
CAKI-1 = tested on: CAKI-1
CCRF-CEM = tested on: CCRF-CEM
COLO 205 = tested on: COLO 205
EKVX = tested on: EKVX
HCC 2998 = tested on: HCC 2998
HCT-116 = tested on: HCT-116
HCT-15 = tested on: HCT-15
HL-60 = tested on: HL-60
HT-29 = tested on: HT-29
IGROV-1 = tested on: IGROV-1
K562 = tested on: K562
KM12 = tested on: KM12
LOX IMVI = tested on: LOX IMVI
LXFL 529 = tested on: LXFL 529
MOLT-4 = tested on: MOLT-4
Malme-3M = tested on: Malme-3M
NCI-H226 = tested on: NCI-H226
NCI-H23 = tested on: NCI-H23
NCI-H460 = tested on: NCI-H460
OVCAR-3 = tested on: OVCAR-3
OVCAR-4 = tested on: OVCAR-4
OVCAR-5 = tested on: OVCAR-5
OVCAR-8 = tested on: OVCAR-8
RPMI-8226 = tested on: RPMI-8226
RXF 393 = tested on: RXF 393
SF-268 = tested on: SF-268
SF-295 = tested on: SF-295
SF-539 = tested on: SF-539
SK-MEL-28 = tested on: SK-MEL-28
SK-MEL-2 = tested on: SK-MEL-2
SK-MEL-5 = tested on: SK-MEL-5
SK-OV-3 = tested on: SK-OV-3
SN12C = tested on: SN12C
SNB-19 = tested on: SNB-19
SNB-75 = tested on: SNB-75
SW-620 = tested on: SW-620
U-251 = tested on: U-251
UACC-257 = tested on: UACC-257
UACC-62 = tested on: UACC-62
UO-31 = tested on: UO-31

With `C/C=C(\C)c1cc(=O)c2c(C)cc3c(c2o1)C(=O)c1c(O)c(C2CC(C)(N(C)C)C(O)C(C)O2)cc(C2CC(N(C)C)C(O)C(C)O2)c1C3=O` (stereo not given) the GI50 (786-0) was 0.13 µM (active), the GI50 (ACHN) was 0.0789 µM (active) and the GI50 (BT-549) was 0.223 µM (active). The GI50 (DLD-1) was 2.31 µM (inactive), the GI50 (DMS-114) was 1.5 µM (inactive) and the GI50 (DMS-273) was 1.91 µM (inactive). The GI50 (DU-145) was 0.138 µM (active), the GI50 (HOP-18) was 0.154 µM (active) and the GI50 (HOP-92) was 0.256 µM (active). The GI50 (Hs-578T) was 0.247 µM (active), the GI50 (KM-20L2) was 2.81 µM (inactive) and the GI50 (M14) was 0.129 µM (active). For the same compound, the GI50 (M19-MEL) was 3.21 µM (inactive), the GI50 (MDA-MB-231) was 0.156 µM (active) and the GI50 (MDA-MB-435) was 0.217 µM (active). The GI50 (MDA-N) was 0.178 µM (active), the GI50 (PC-3) was 0.229 µM (active) and the GI50 (SNB-78) was 3.87 µM (inactive). For the same compound, the GI50 (SR) was 0.267 µM (active), the GI50 (T47D) was 0.257 µM (active) and the GI50 (TK-10) was 0.237 µM (active). The GI50 (XF498) was < 0.01 µM (active).
With `CC(C)=CC(=O)C/C(=N\NC(N)=S)C(=O)Nc1ccc(Cl)cc1` the GI50 (786-0) was > 100 µM (inactive), the GI50 (A498) was > 100 µM (inactive) and the GI50 (A549) was > 100 µM (inactive). The GI50 (ACHN) was > 100 µM (inactive), the GI50 (CAKI-1) was > 100 µM (inactive) and the GI50 (CCRF-CEM) was > 100 µM (inactive). The GI50 (COLO 205) was > 100 µM (inactive), the GI50 (DLD-1) was > 100 µM (inactive) and the GI50 (DMS-114) was > 100 µM (inactive). The GI50 (DMS-273) was > 100 µM (inactive), the GI50 (EKVX) was > 100 µM (inactive) and the GI50 (HCC 2998) was > 100 µM (inactive). The GI50 (HCT-116) was > 100 µM (inactive), the GI50 (HCT-15) was over 100 µM and the GI50 (HL-60) was > 100 µM (inactive). For the same compound, the GI50 (HOP-18) was > 100 µM (inactive), the GI50 (HT-29) was > 100 µM (inactive) and the GI50 (IGROV-1) was > 100 µM (inactive). The GI50 (K562) was > 100 µM (inactive), the GI50 (KM-20L2) was > 100 µM (inactive) and the GI50 (KM12) was > 100 µM (inactive). For the same compound, the GI50 (LOX IMVI) was > 100 µM (inactive), the GI50 (LXFL 529) was > 100 µM (inactive) and the GI50 (M14) was > 100 µM (inactive). The GI50 (M19-MEL) was > 100 µM (inactive), the GI50 (MOLT-4) was > 100 µM (inactive) and the GI50 (Malme-3M) was > 100 µM (inactive). For the same compound, the GI50 (NCI-H226) was > 100 µM (inactive), the GI50 (NCI-H23) was > 100 µM (inactive) and the GI50 (NCI-H460) was > 100 µM (inactive). The GI50 (OVCAR-3) was > 100 µM (inactive), the GI50 (OVCAR-4) was > 100 µM (inactive) and the GI50 (OVCAR-5) was > 100 µM (inactive). For the same compound, the GI50 (OVCAR-8) was > 100 µM (inactive), the GI50 (RPMI-8226) was > 100 µM (inactive) and the GI50 (RXF 393) was > 100 µM (inactive). The GI50 (SF-268) was > 100 µM (inactive), the GI50 (SF-295) was > 100 µM (inactive) and the GI50 (SF-539) was > 100 µM (inactive). The GI50 (SK-MEL-28) was > 100 µM (inactive), the GI50 (SK-MEL-2) was > 100 µM (inactive) and the GI50 (SK-MEL-5) was > 100 µM (inactive). For the same compound, the GI50 (SK-OV-3) was > 100 µM (inactive), the GI50 (SN12C) was > 100 µM (inactive) and the GI50 (SNB-19) was > 100 µM (inactive). The GI50 (SNB-75) was 79.8 µM (inactive), the GI50 (SNB-78) was > 100 µM (inactive) and the GI50 (SW-620) was > 100 µM (inactive). For the same compound, the GI50 (TK-10) was > 100 µM (inactive), the GI50 (U-251) was > 100 µM (inactive) and the GI50 (UACC-257) was > 100 µM (inactive). The GI50 (UACC-62) was > 100 µM (inactive) and the GI50 (UO-31) was > 100 µM (inactive).
